Residues, ends and D or L forms follow the SMILES beside them. No end group written: not given here. *: point of attachment. FITC = O=C1OC2(c3ccc(O)cc3Oc3cc(O)ccc32)c2ccc(NC(=S)*)cc21
Columns and labels:
Assay type in all cases: binding
CCL8 = biological target: T1, CCL8 (Homo sapiens, UniProt P80075); experiment: Fluorescence polarisation (anisotropy) assay; settings: labelled peptide 50 nM, CCL8 1 μM
T1 construct: SUMO (in-house protein only) (cleaved yes); made in house; host or cells: Escherichia coli RosettaGami 2 (DE3)
T1 sequence (P80075 24-99): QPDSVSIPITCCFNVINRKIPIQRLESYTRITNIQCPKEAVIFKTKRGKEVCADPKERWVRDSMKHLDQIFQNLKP
From the text: FIG. 14. Characterisation of P672_PEP-FITC by fluorescence polarisation. […] Residue C30 was mutated to A to avoid an unpaired cysteine residue. The residues corresponding to the above peptide are wholly contained within the CCL8-binding region of P672_RHIPU transferred in the hybrid evasin P672:EVA1 (SEQ ID 76, see FIG. 5). […] (SEQ ID NO: 90). FIG. 14(A). […] The curve was fitted to the two site-total and non-specific binding model in GraphPad Prism 6. Data are shown as mean and SEM of three independent experiments, with each independent experiment performed as three technical replicates. The affinity constant Kd was calculated in GraphPad Prism from the curve fit with the standard error reported.
FIG. 14(B). […] The measured fluorescence anisotropy (y-axis) of P672_PEP-FITC (50 nM) following binding to a fixed dose (1 μM)) of CCL7, CCL8, CCL18 and CXCL1 (negative control). […] Statistical significance was determined using one-way ANOVA with Sidak's correction for multiple comparisons using Graph Pad Prism 6. **=p<0.005, ****=P<0.00005, ns=not significant.
FIG. 15(C). […] In each case 100 μM (++) or […] (+) of P672_PEP was incubated with P672_PEP-FITC (50 nM)/chemokine (1 μM CCL7 and CCL18; 500 nM CCL8) and the resulting anisotropy measured. […] Experiment carried out in triplicate where each data point is the average of one experiment carried out in technical triplicate. Mean with SEM shown and statistical significance was determined using one-way ANOVA with Sidak's correction for multiple comparisons using Graph Pad Prism 6. *=p<0.05, ***=p<0.0005, ****=P<0.00005, ns=not significant.
Fluorescence polarization assays were performed using a Clariostar (BMG Tech) plate reader with the supplied FITC excitation and emission filters using 96 half area well plates (Corning). The buffer used (FP assay buffer) was 50 mM HEPES, 150 mM NaCl, 0.1% BSA, 0.002% TWEEN-20, 0.2% DMSO, pH 7.4 and the final volume in each well was 30 μL. Polarization was converted to anisotropy using the equation A=(2*P)/(3−P) where P is polarization and A is anisotropy. For each peptide tested the gain was set to 35 mP and adjusted to a well containing fluorescent peptide only. The polarization of the emitted light in the FITC emission channel was then determined. Experiments were performed as two technical and three biological replicates. Screening of P672 peptide fragments was achieved through incubation of each peptide (50 nM) with 1 μM CCL8 (Peprotech) for 30 minutes in FP assay buffer and the resulting anisotropy of the emitted light determined as above. The chemokine cross binding screen was performed by incubating 1 μM chemokine (Peprotech) with 50 nM BK1.1FITC for half an hour in FP assay buffer and the resulting anisotropy of the emitted light determined as above. […] The anisotropy was plotted as a function of CCL8 concentration and fitted to the equation: Y=Bmax*X/(KD+X)+NS*X+Background, where Y is the measured anisotropy, X is the concentration of CCL8 added, Bmax is the maximum binding, KD is the equilibrium dissociation constant, NS is the slope of the nonlinear regression and Background is the anisotropy when no CCL8 is present, in Graph Pad Prism. Displacement assays were carried out with CCL7, CCL8, and CCL18 (Peprotech, 1 μM). […] For all FP assays, the experiments were carried out as two technical and three biological replicates.

CCL18 = biological target: T2, CCL18 (Homo sapiens, UniProt P55774); experiment: Fluorescence polarisation (anisotropy) assay; settings: labelled peptide 50 nM, chemokine 1 μM
T2 construct: purchased Peprotech
T2 sequence (P55774 21-89): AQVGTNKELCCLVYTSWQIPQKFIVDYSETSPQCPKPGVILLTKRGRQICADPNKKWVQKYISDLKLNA
Experimental: (§1) FIG. 14(B). Fluorescence polarisation assay showing binding of chemokines to P672_PEP-FITC. The measured fluorescence anisotropy (y-axis) of P672_PEP-FITC (50 nM) following binding to a fixed dose (1 μM)) of CCL7, CCL8, CCL18 and CXCL1 (negative control). […] Statistical significance was determined using one-way ANOVA with Sidak's correction for multiple comparisons using Graph Pad Prism 6. **=p<0.005, ****=P<0.00005, ns=not significant.
(§2) FIG. 15(C). Displacement of P672_PEP-FITC from CCL18 by P672_PEP. In each case 100 μM (++) or […] (+) of P672_PEP was incubated with P672_PEP-FITC (50 nM)/chemokine (1 μM CCL7 and CCL18; 500 nM CCL8) and the resulting anisotropy measured. A peptide with the P672_PEP sequence scrambled ([…]) served as a negative control (P672_PEP_SCRAM; […]). Experiment carried out in triplicate where each data point is the average of one experiment carried out in technical triplicate. Mean with SEM shown and statistical significance was determined using one-way ANOVA with Sidak's correction for multiple comparisons using Graph Pad Prism 6. *=p<0.05, ***=p<0.0005, ****=P<0.00005, ns=not significant.
(§3) Fluorescence polarization assays were performed using a Clariostar (BMG Tech) plate reader with the supplied FITC excitation and emission filters using 96 half area well plates (Corning). The buffer used (FP assay buffer) was 50 mM HEPES, 150 mM NaCl, 0.1% BSA, 0.002% TWEEN-20, 0.2% DMSO, pH 7.4 and the final volume in each well was 30 μL. Polarization was converted to anisotropy using the equation A=(2*P)/(3−P) where P is polarization and A is anisotropy. For each peptide tested the gain was set to 35 mP and adjusted to a well containing fluorescent peptide only. The polarization of the emitted light in the FITC emission channel was then determined. Experiments were performed as two technical and three biological replicates. Screening of P672 peptide fragments was achieved through incubation of each peptide (50 nM) with 1 μM CCL8 (Peprotech) for 30 minutes in FP assay buffer and the resulting anisotropy of the emitted light determined as above. The chemokine cross binding screen was performed by incubating 1 μM chemokine (Peprotech) with 50 nM BK1.1FITC for half an hour in FP assay buffer and the resulting anisotropy of the emitted light determined as above. To monitor BK1.1FITC Ala mutants of binding to CCL8, 50 nM labelled peptide was incubated with varying concentrations of recombinant CCL8 (0-25 μM, final) in 30 μL FP assay buffer for 30 minutes and the resulting anisotropy of the emitted light determined as above. The anisotropy was plotted as a function of CCL8 concentration and fitted to the equation: Y=Bmax*X/(KD+X)+NS*X+Background, where Y is the measured anisotropy, X is the concentration of CCL8 added, Bmax is the maximum binding, KD is the equilibrium dissociation constant, NS is the slope of the nonlinear regression and Background is the anisotropy when no CCL8 is present, in Graph Pad Prism. Displacement assays were carried out with CCL7, CCL8, and CCL18 (Peprotech, 1 μM). […] For all FP assays, the experiments were carried out as two technical and three biological replicates.

CCL7 = biological target: T3, CCL7 (Homo sapiens, UniProt P80098); experiment: Fluorescence polarisation (anisotropy) assay; settings: labelled peptide 50 nM, chemokine 1 μM
T3 construct: purchased Peprotech
T3 sequence (P80098 24-99): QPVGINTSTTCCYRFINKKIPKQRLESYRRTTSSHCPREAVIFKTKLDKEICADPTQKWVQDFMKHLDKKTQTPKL
Experimental: as §1, §2, §3

CXCL1 = biological target: T4, CXCL1 (Homo sapiens, UniProt P09341); experiment: Fluorescence polarisation (anisotropy) assay; settings: labelled peptide 50 nM, chemokine 1 μM; negative control chemokine
T4 sequence (P09341 35-107): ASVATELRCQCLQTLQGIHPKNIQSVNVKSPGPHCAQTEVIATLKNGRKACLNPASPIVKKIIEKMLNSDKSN
Experimental: as §1
Fluorescence polarization assays were performed using a Clariostar (BMG Tech) plate reader with the supplied FITC excitation and emission filters using 96 half area well plates (Corning). The buffer used (FP assay buffer) was 50 mM HEPES, 150 mM NaCl, 0.1% BSA, 0.002% TWEEN-20, 0.2% DMSO, pH 7.4 and the final volume in each well was 30 μL. […] The polarization of the emitted light in the FITC emission channel was then determined. […] Screening of P672 peptide fragments was achieved through incubation of each peptide (50 nM) with 1 μM CCL8 (Peprotech) for 30 minutes in FP assay buffer and the resulting anisotropy of the emitted light determined as above. The chemokine cross binding screen was performed by incubating 1 μM chemokine (Peprotech) with 50 nM BK1.1FITC for half an hour in FP assay buffer and the resulting anisotropy of the emitted light determined as above. […]

[1] = biological target: T5, His-tagged P672-biotinylated CCL8 interaction (Homo sapiens, UniProt P80075); experiment: AlphaScreen disruption of P672:chemokine interaction; settings: peptide 100 μM
T5 construct: SUMO (cleaved yes); biotin (enzymatic, BirA co-expression); made in house; host or cells: CCL8: Escherichia coli RosettaGami 2 (DE3); P672: HEK293F
T5 sequence (P80075 24-99): T1 sequence (P80075 24-99)
Experimental: (§4) B-D. Effect of indicated peptides at a concentration of 100 μM on a His-tagged P672-biotinylated CCL8, CCL2 or CCL3 interaction respectively using an AlphaScreen assay. In each panel. […] Data are presented as mean±s.e.m. of three independent experiments, shown as individual data points.
(§5) Data are shown as mean of two technical replicates. Curves were fitted with 4 parameters to estimate IC50.
(§6) The binding of these peptides to CCL8 was assayed by examining their ability to disrupt the P672:CCL8 interaction using an AlphaScreen assay (FIG. 20E, H). […] BK1 derivatives were tested for their ability to inhibit P672 interactions with CCL2 and CCL3 using AlphaScreen (FIG. 20 F, G, I, J).
(§7) AlphaScreen® Histidine detection kit was purchased from PerkinElmer (6760619M lot: 2457886) and the assay was set up in white bottom Proxiplate™ 384 Plus microplates (PerkinElmer) following the manufacturer's instructions. The assay buffer used was 50 mM HEPES, 150 mM NaCl, 0.1% BSA, 0.01% Tween20, 1% DMSO, pH 7.5 and the final volume in each well was 20 μL. Briefly, biotinylated chemokine (recombinant, final concentration 1.25 nM (CCL8), 5 nM (CCL2) and 2.5 nM (CCL3)) was pre-incubated at room temperature for 15 min with different concentrations of each peptide. His-tagged P672 (final concentration 2.5 nM (CCL8), 5 nM (CCL2) and 1.25 nM (CCL3)) was then added to each well and the plate was incubated at room temperature for 30 min. Finally, acceptor and donor beads were added as a 1:1 suspension in buffer to each well and the plate was further incubated at RT for 1 h. Data was obtained by reading the plate using a Pherastar FSX plate reader (excitation 680 nm, emission 570 nm) and was analysed using GraphPad Prism.

[2] = biological target: T6, His-tagged P672-biotinylated CCL2 interaction (Homo sapiens, UniProt P13500); experiment: as above; settings: AlphaScreen, peptide 100 μM
T6 construct: host or cells: P672: HEK293F (in-house); biotinylated CCL2: not described
T6 sequence (P13500 24-99): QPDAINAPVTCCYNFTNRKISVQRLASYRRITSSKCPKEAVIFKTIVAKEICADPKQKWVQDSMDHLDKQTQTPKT
Experimental: as §4, §5, §6, §7

[3] = biological target: T7, His-tagged P672-biotinylated CCL3 interaction (Homo sapiens, UniProt P10147); experiment: as above; settings: AlphaScreen, peptide 100 μM
T7 construct: host or cells: P672: HEK293F (in-house); biotinylated CCL3: not described
T7 sequence (P10147 24-92): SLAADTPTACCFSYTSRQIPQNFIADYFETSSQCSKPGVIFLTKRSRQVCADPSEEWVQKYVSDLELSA
Experimental: as §4, §5, §6, §7

Compound	Binding to CCL8 (change in anisotropy) (CCL8)	Binding to CCL8 (change in anisotropy) (CCL8; listed as BK1.1FTC)	Binding to CCL8 (change in anisotropy) (CCL8; listed as P672_PEP-FITC)	Binding to CCL18 (change in anisotropy) (CCL18)	Binding to CCL18 (change in anisotropy) (CCL18; listed as P672_PEP-FITC)	Binding to CCL7 (change in anisotropy) (CCL7)	Binding to CCL7 (change in anisotropy) (CCL7; listed as P672_PEP-FITC)	Binding to CXCL1 (change in anisotropy) (CXCL1)	Disruption of the P672-CCL8 interaction [1]	Disruption of the P672-CCL2 interaction [2]	Disruption of the P672-CCL3 interaction [3]
CC(C)[C@H](NC(=O)[C@@H]1CCCN1C(=O)[C@H](CCCCN)NC(=O)[C@H](Cc1ccccc1)NC(=O)[C@H](Cc1ccccc1)NC(=O)[C@H](CC(=O)O)NC(=O)[C@H](CCC(=O)O)NC(=O)[C@H](Cc1ccc(O)cc1)NC(=O)[C@H](CC(=O)O)NC(=O)[C@H](CCC(=O)O)NC(=O)[C@H](CC(=O)O)NC(=O)[C@H](CCC(=O)O)NC(=S)Nc1ccc2c(c1)C(=O)OC21c2ccc(O)cc2Oc2cc(O)ccc21)C(=O)N[C@H](C(=O)N[C@@H](C)C(=O)N[C@@H](Cc1ccc(O)cc1)C(=O)N[C@@H](Cc1ccccc1)C(N)=O)[C@@H](C)O [BK1.1FITC] ({FITC}-EDEDYEDFFKPVTAYF-NH2)	significant increase in anisotropy	increase in anisotropy	able to bind	significant increase in anisotropy	able to bind	significant increase in anisotropy	able to bind	not	–	–	–
Y21F32: shorter peptide Y21-F32 of P672 without the C30A mutation (YEDFFKPVTCYF-NH2)	–	–	–	–	–	–	–	–	significantly disrupt	disrupted	disrupted

Source: US20200247855A1, “THERAPY AND DIAGNOSTICS” (OXFORD UNIVERSITY INNOVATION LIMITED, priority 2017, published 2020)
